Here are results for 40 molecules from ChEMBL document CHEMBL5500378, “Discovery of 4-benzylpiperazinequinoline BChE inhibitor that suppresses neuroinflammation for the treatment of Alzheimer's disease” (Eur J Med Chem, 2024).

Each structure is given as a SMILES string. Bounds are passed on as bounds.

As usually defined, the IC50 is the concentration that inhibits the measured activity by half. A high value points to lower potency. The inhibition is the share of the control response that was lost under treatment. High values mean strong suppression, low ones little suppression. The term EC50 denotes the concentration giving half of the maximal effect. A high value points to a need for much substance. As usually defined, the half-life is the time in which the quantity being followed falls by half.

The target of data set [1] is Cholinesterase (Equus caballus, UniProt P81908). Nature of the data set: Inhibition of equine serum BChE using BTC as substrate incubated for 2 mins by Ellman's method. The class given is cell-free.
The target of data set [2] is T1, Cholinesterase (Homo sapiens, UniProt P06276). Briefly: Inhibition of human BChE using BTC as substrate at 10 uM incubated for 2 mins by Ellman's method relative to control. On the technique in general: In Ellman's method for cholinesterases, released thiocholine reacts with DTNB.
In data set [3] the target is Acetylcholinesterase (Electrophorus electricus) (UniProt O42275). Briefly: Inhibition of electric eel AChE using ATC as substrate at 10 uM incubated for 2 mins by Ellman's method relative to control.
Data set [4] concerns the target Acetylcholinesterase (Electrophorus electricus, UniProt O42275). Nature of the data set: Inhibition of electric eel AChE using ATC as substrate incubated for 2 mins by Ellman's method.
Data set [5] concerns the target T1, Cholinesterase. Nature of the data set: Inhibition of human BChE using BTC as substrate incubated for 2 mins by Ellman's method.
Data set [6] deals with Antioxidant response element. Briefly: Induction of ARE in human HepG2-ARE-C8 cells incubated for 24 hrs by luciferase based assay. The following applies: HepG2-ARE-C8, 24 h. The class given is cell-based.
Data set [7] deals with Cholinesterase (Equus caballus) (UniProt P81908). Nature of the data set: Inhibition of equine serum BChE using BTC as substrate at 10 uM incubated for 2 mins by Ellman's method relative to control. The class given is cell-free.
Data set [8] is described as follows: Metabolic stability in human liver microsomes assessed as half life at 2 uM incubated for 60 mins by LC-MS/MS analysis. The class given is ADME, Microsome.

Sequence of Acetylcholinesterase (Electrophorus electricus) (O42275 24-633 limits assumed): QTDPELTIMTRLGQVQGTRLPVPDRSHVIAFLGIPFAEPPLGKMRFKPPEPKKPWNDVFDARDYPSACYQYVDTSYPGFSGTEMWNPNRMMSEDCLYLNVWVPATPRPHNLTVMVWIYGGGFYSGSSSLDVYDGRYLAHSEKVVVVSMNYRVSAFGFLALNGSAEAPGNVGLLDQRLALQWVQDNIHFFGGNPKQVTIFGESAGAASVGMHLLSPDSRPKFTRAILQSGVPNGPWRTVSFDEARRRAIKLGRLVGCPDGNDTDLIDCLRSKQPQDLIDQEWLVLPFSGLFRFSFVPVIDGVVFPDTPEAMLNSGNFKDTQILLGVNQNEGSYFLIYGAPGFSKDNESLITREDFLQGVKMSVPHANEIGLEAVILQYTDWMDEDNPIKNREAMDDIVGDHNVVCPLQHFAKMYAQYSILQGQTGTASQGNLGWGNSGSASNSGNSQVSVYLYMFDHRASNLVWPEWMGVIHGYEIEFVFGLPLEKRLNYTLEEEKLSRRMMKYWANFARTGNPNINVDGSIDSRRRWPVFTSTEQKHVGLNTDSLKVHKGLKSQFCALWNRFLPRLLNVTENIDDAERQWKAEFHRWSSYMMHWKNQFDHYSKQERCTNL
T1 sequence (P06276 whole entry): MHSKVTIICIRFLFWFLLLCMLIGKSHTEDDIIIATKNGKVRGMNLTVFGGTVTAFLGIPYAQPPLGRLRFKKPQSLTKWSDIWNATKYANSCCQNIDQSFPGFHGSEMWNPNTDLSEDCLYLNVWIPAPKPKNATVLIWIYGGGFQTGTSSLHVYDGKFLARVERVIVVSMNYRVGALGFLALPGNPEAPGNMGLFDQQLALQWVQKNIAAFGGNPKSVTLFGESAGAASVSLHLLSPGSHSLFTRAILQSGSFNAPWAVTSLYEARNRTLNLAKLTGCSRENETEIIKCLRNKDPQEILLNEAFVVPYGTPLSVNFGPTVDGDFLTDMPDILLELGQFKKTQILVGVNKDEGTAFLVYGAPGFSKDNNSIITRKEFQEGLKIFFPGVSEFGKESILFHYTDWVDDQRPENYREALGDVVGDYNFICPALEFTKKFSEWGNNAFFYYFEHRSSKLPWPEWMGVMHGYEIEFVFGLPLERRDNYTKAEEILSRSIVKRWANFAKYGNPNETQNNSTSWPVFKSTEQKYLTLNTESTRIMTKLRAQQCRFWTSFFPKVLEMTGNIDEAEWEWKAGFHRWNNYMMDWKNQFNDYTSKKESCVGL
Sequence of Acetylcholinesterase (O42275 whole entry): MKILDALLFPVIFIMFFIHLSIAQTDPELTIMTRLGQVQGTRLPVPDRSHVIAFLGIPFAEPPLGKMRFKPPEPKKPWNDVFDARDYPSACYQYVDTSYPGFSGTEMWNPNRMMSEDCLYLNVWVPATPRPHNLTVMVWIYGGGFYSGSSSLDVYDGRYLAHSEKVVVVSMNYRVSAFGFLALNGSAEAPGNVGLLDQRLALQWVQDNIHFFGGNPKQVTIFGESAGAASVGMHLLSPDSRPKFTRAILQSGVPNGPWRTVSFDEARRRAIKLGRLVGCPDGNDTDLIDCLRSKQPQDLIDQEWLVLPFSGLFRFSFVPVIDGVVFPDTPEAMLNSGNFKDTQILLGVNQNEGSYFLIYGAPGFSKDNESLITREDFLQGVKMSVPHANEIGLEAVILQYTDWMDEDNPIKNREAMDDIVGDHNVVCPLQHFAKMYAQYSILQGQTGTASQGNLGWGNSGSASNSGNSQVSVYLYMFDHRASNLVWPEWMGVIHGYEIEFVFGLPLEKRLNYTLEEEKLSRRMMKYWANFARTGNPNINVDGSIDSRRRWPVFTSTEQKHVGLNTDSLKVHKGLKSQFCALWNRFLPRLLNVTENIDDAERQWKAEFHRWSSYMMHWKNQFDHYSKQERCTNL
Sequence of Cholinesterase (Equus caballus, UniProt P81908) (P81908 whole entry): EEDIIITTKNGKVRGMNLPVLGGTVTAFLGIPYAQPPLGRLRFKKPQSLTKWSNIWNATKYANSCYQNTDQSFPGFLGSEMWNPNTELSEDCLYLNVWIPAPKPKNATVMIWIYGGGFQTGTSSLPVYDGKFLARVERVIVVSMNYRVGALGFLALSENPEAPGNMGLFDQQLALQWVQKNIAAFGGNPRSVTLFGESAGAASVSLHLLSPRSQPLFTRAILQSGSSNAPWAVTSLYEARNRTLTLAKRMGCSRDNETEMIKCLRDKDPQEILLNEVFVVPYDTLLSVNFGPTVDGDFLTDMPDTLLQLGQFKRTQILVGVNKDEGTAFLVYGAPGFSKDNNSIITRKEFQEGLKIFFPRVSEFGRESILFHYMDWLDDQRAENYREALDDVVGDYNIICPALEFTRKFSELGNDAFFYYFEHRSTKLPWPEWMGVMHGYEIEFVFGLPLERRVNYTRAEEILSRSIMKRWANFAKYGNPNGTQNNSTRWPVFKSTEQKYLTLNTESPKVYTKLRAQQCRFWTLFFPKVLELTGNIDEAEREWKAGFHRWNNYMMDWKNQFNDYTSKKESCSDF
Sequence of Cholinesterase (Equus caballus) (P81908 whole entry): as above

For the molecule `Cc1cccc(C(=O)Nc2cnc3ccccc3c2N2CCN(Cc3ccccc3)CC2)c1`, the IC50 in data set [1] amounted to 0.36 µM. Moreover, the inhibition in data set [2] and in data set [3] was less than 50% in each case.
`Cc1ccc(CC(=O)Nc2cnc3ccccc3c2N2CCN(Cc3ccccc3)CC2)cc1`: it took 4.73 µM to reach half-maximal inhibition in data set [1] (IC50). Further, the inhibition in data set [2] and in data set [3] was less than 50% each time.
Consider `O=C(Nc1cnc2ccccc2c1N1CCN(Cc2ccccc2)CC1)c1cccs1`, for which the IC50 in data set [1] is 0.21 µM; in data set [4], 4.04 µM. This molecule also showed an inhibition in data set [2] of less than 50%.
Taken in the same sequence, the figures for `O=C(Nc1cnc2ccccc2c1N1CCN(Cc2ccccc2)CC1)c1ccco1` were 0.42 µM, 4.22 µM and less than 50%.
On to `O=C(Cc1ccc(Cl)cc1)Nc1cnc2ccccc2c1N1CCN(Cc2ccccc2)CC1`, for which, in data set [1], the concentration for half-maximal inhibition (IC50) came to 0.96 µM. The inhibition in data set [2] and in data set [3] was less than 50% each time.
`O=C(Nc1cnc2ccccc2c1N1CCN(Cc2ccccc2)CC1)c1ccccn1`: the IC50 came out at 0.28 µM in data set [1] and 2.66 µM in data set [5]. The inhibition in data set [3] was less than 50%.
Taken in the same sequence, the figures for `O=C(Nc1cnc2ccccc2c1N1CCN(Cc2ccccc2)CC1)c1ccc2ccccc2c1` were 0.6 µM, 12 µM and less than 50%.
In the same order, the values of `CCCCc1ccc(C(=O)Nc2cnc3ccccc3c2N2CCN(Cc3ccccc3)CC2)cc1` are 0.13 µM, 0.55 µM and less than 50%.
Take `O=C(Nc1cnc2ccccc2c1N1CCN(Cc2ccccc2)CC1)c1ccc(Cl)cc1Cl`: the IC50 amounted to 0.23 µM in data set [1] and 2.41 µM in data set [5]. Also, the inhibition in data set [3] was less than 50%.
`O=C(Nc1cnc2ccccc2c1N1CCN(Cc2ccccc2)CC1)c1ccc(F)cc1` displayed an IC50 in data set [1] of 3.31 µM. Besides, the inhibition in data set [2] and in data set [3] was less than 50% in each case.
For the molecule `O=C(CCc1ccccc1)Nc1cnc2ccccc2c1N1CCN(Cc2ccccc2)CC1`, the IC50 in data set [1] is 0.44 µM; in data set [5], 5.39 µM. Further, the inhibition in data set [3] was less than 50%.
In data set [1], `N#Cc1ccc(C(=O)Nc2cnc3ccccc3c2N2CCN(Cc3ccccc3)CC2)cc1` gave an IC50 of 7.61 µM. For the same molecule, the inhibition in data set [2] and in data set [3] was less than 50% in each case.
Regarding `O=C(Nc1cnc2ccccc2c1N1CCN(Cc2ccccc2)CC1)C1CCCCC1`, the results for the IC50 in data set [1] and in data set [4] were 11.9 µM and 2.02 µM, respectively. This molecule yielded an inhibition in data set [2] of less than 50%.
`O=C(Nc1cnc2ccccc2c1N1CCN(Cc2ccccc2)CC1)c1ccc(Br)cc1` displayed a concentration for half-maximal inhibition (IC50) in data set [1] of 1.27 µM. Moreover, the inhibition in data set [2] and in data set [3] was less than 50% each time.
`O=C(Nc1cnc2ccccc2c1N1CCN(Cc2ccccc2)CC1)c1ccc([N+](=O)[O-])c([N+](=O)[O-])c1` yielded an IC50 in data set [1] of 9.04 µM. Moreover, the inhibition in data set [2] and in data set [3] was less than 50% each time.
Regarding `Cc1ccc(C(=O)Nc2cnc3ccccc3c2N2CCN(Cc3ccccc3)CC2)cc1`, the IC50 in data set [1] was determined as 0.16 µM; in data set [5], 0.77 µM. The molecule further showed an inhibition in data set [3] of less than 50%.
For the molecule `CC(C)(C)c1cc(O)ccc1O` [E319], it took 25.6 µM to reach a half-maximal effect in data set [6] (EC50).
`Cc1cccc(C(=O)Nc2cnc3ccccc3c2N2CCN(Cc3ccccc3)CC2)n1`: it took 3.32 µM to reach half-maximal inhibition in data set [1] (IC50). For the same molecule, the inhibition in data set [2] and in data set [3] was less than 50% throughout.
Take `O=C(Nc1cnc2ccccc2c1N1CCN(Cc2ccccc2)CC1)C1CCCO1` (centres undefined): the inhibition in data set [7], in data set [2] and in data set [3] was less than 50% each time.
Take `O=C(Nc1cnc2ccccc2c1N1CCN(Cc2ccccc2)CC1)C1CCCC1`: the IC50 worked out at 15.1 µM in data set [1] and 1.34 µM in data set [4]. The inhibition in data set [2] was less than 50%.
In data set [1], `O=C(Nc1cnc2ccccc2c1N1CCN(Cc2ccccc2)CC1)c1ccc(F)cc1F` came in with an IC50 of 0.46 µM. The inhibition in data set [2] and in data set [3] was less than 50% each time.
As for `CC(C)c1ccc(C(=O)Nc2cnc3ccccc3c2N2CCN(Cc3ccccc3)CC2)cc1`, in data set [1], 1.18 µM corresponded to half-maximal inhibition (IC50). Besides, the inhibition in data set [2] and in data set [3] was less than 50% in each case.
`CCCCCc1ccc(C(=O)Nc2cnc3ccccc3c2N2CCN(Cc3ccccc3)CC2)cc1`: the figures for the IC50 in data set [1] and in data set [5] were 0.17 µM and 1.59 µM, respectively. The same molecule gave an inhibition in data set [3] of less than 50%.
For `COc1cccc(C(=O)Nc2cnc3ccccc3c2N2CCN(Cc3ccccc3)CC2)c1`, in data set [1], 0.3 µM corresponded to half-maximal inhibition (IC50). Besides, the inhibition in data set [2] and in data set [3] was less than 50% in each case.
Turning to `O=C(Nc1cnc2ccccc2c1N1CCN(Cc2ccccc2)CC1)c1ccccc1`, the IC50 worked out at 3.06 µM in data set [1] and 1.68 µM in data set [5]. Moreover, the inhibition in data set [3] is less than 50%. The half-life at 2 µM in data set [8] turned out to be 9.4 min.
`O=C(Nc1cnc2ccccc2c1N1CCN(Cc2ccccc2)CC1)c1ccc([N+](=O)[O-])cc1` showed an IC50 in data set [1] of 0.7 µM. Moreover, the inhibition in data set [2] and in data set [3] was less than 50% throughout.
Turning to `Cc1ccc(C(=O)Nc2cnc3ccccc3c2N2CCN(Cc3ccccc3)CC2)c(C)c1`, the figures for the IC50 in data set [1], in data set [5] and in data set [4] were 0.4 µM, 3.52 µM and 3.77 µM, respectively.
For `O=C(Nc1cnc2ccccc2c1N1CCN(Cc2ccccc2)CC1)c1cccc([N+](=O)[O-])c1`, the IC50 in data set [1] was determined as 1.3 µM. The inhibition in data set [2] and in data set [3] was less than 50% each time.
Regarding `Cc1cccc(CC(=O)Nc2cnc3ccccc3c2N2CCN(Cc3ccccc3)CC2)c1`, the IC50 in data set [1] is 0.43 µM; in data set [5] it was 10.7 µM. Moreover, the inhibition in data set [3] is less than 50%.
Turning to `O=C(Nc1cnc2ccccc2c1N1CCN(Cc2ccccc2)CC1)c1cccc(Cl)c1`, the IC50 in data set [1] amounted to 1.58 µM. In addition, the inhibition in data set [2] and in data set [3] was less than 50% throughout.
Molecule `O=C(Cc1cccc([N+](=O)[O-])c1)Nc1cnc2ccccc2c1N1CCN(Cc2ccccc2)CC1` displayed an IC50 in data set [1] of 6.27 µM. In addition, the inhibition in data set [2] and in data set [3] was less than 50% throughout.
On to `O=C(Cc1ccccc1Cl)Nc1cnc2ccccc2c1N1CCN(Cc2ccccc2)CC1`, for which the IC50 in data set [1] came to 0.77 µM; in data set [5] it was 1.15 µM. Also, in data set [3], the inhibition is less than 50%.
As to `COc1ccc(C(=O)Nc2cnc3ccccc3c2N2CCN(Cc3ccccc3)CC2)cc1`, in data set [1], inhibition was half-maximal at 0.18 µM (IC50). Also, the inhibition in data set [2] and in data set [3] was less than 50% in each case.
Turning to `O=C(Nc1cnc2ccccc2c1N1CCN(Cc2ccccc2)CC1)c1ccc(Cl)cc1`, the IC50 in data set [1] was 0.4 µM; in data set [5] it was 4.33 µM. Besides, the inhibition in data set [3] was less than 50%.
Taken in the same sequence, the figures for `O=C(Nc1cnc2ccccc2c1N1CCN(Cc2ccccc2)CC1)c1ccccc1Cl` were 0.18 µM, 1.13 µM and less than 50%.
In the same order, the values of `O=C(Nc1cnc2ccccc2c1N1CCN(Cc2ccccc2)CC1)c1cccc2ccccc12` are 0.14 µM, 4.13 µM and less than 50%.
In the same order, the values of `O=C(Cc1ccccc1)Nc1cnc2ccccc2c1N1CCN(Cc2ccccc2)CC1` are 0.59 µM, 9.23 µM and less than 50%.
Regarding `CCc1ccc(C(=O)Nc2cnc3ccccc3c2N2CCN(Cc3ccccc3)CC2)cc1`, the midpoint of inhibition in data set [1], the IC50, lay at 2.65 µM. The inhibition in data set [2] and in data set [3] was less than 50% in each case.
Regarding `COc1ccccc1C(=O)Nc1cnc2ccccc2c1N1CCN(Cc2ccccc2)CC1`, the results for the IC50 in data set [1] and in data set [5] were 0.18 µM and 18.4 µM, respectively. Moreover, in data set [3], the inhibition is less than 50%.
`Cc1ccccc1C(=O)Nc1cnc2ccccc2c1N1CCN(Cc2ccccc2)CC1`: the IC50 in data set [1] came out at 2.24 µM; in data set [5], 1.2 µM. For the same molecule, the inhibition in data set [3] was less than 50%.
